Results taken from patent publication US4052455A, “Styrylamidines” (Mead Johnson & Company, priority 1975, dated 1977).
Structures can show the parent of a compound that is named as a salt.

What was measured:
[1] = test system: platelet aggregation; assay: Born/O'Brien nephelometric platelet aggregation test in platelet rich plasma (ADP or collagen induced); assay type: cell-based; settings: human or rabbit platelet rich plasma, 50% or more reduction, read-out: Concentration at which collagen or adenosine diphosphate induced platelet aggregation is reduced by 50% or more
Experimental: (§1) Measurement of the antithrombogenic activity of the compounds of Formula I is carried out by standard pharmacological tests essentially described by Born, Nature, 194, 927 (1962) and O'Brien, J. Clin. Path., 15, 446 (1962). This test comprises a nephelometric method is which the change in turbidity of a specimen of platelet rich plasma (human or rabbit) is measured on causation of platelet aggregation by addition of a thrombogenic inducing agent such as adenosine diphosphate or collagen. The compounds of the present invention are effective antithrombogenic agents according to this test at concentrations in the order of about 0.5 to 90 mcg./0.5 ml. platelet rich plasma. In the intact animal, the antithrombogenic effect is readily observed by applying the above test to blood samples withdrawn prior to and after administration of a compound of the present invention.

[2] = test system: blood platelet aggregation; assay: Oral administration to rabbits; inhibition of blood platelet aggregation induced by ADP or collagen in platelet rich plasma (Example 56); assay type: in vivo; settings: rabbit, oral single dose 25 mg./kg.; for % Inhibition of Blood Platelet Aggregation Induced by ADP: ADP 0.25-1.0 microgram; for % Inhibition of Blood Platelet Aggregation Induced by Collagen: lowest amount of collagen giving maximal aggregation
Experimental: as §1
The styrylamidine is orally administered to each rabbit in a group of 2-6 rabbits at a single dose of 25 mg./kg. body weight. A 8 ml. portion of blood is drawn just prior to dosing in order to obtain a control value and at various time periods thereafter. Platelet rich plasma is prepared from each blood sample by centrifugation at 200 times gravity for 10 min. at room temperature. Samples (0.5 ml.) of platelet rich plasma are tested for their ability to aggregate with either collagen or adenosine-5'-diphosphate added as specified in the modification of Born and O'Brien method which has been fully described hereinbefore. The results shown below indicate the inhibition of blood platelet aggregation induced by the lowest amount of collagen giving maximal aggregation or 0.25-1.0 microgram adenosine-5'-diphosphate for representative amidines.

Row | SMILES | IC50 [1] [µg/mL] | % Inhibition of Blood Platelet Aggregation Induced by ADP ([2]; 2 hrs.) [%] | % Inhibition of Blood Platelet Aggregation Induced by ADP ([2]; 4 hrs.) [%] | % Inhibition of Blood Platelet Aggregation Induced by ADP ([2]; 6 hrs.) [%] | % Inhibition of Blood Platelet Aggregation Induced by ADP ([2]; 24 hrs.) [%] | % Inhibition of Blood Platelet Aggregation Induced by Collagen ([2]; 2 hrs.) [%] | % Inhibition of Blood Platelet Aggregation Induced by Collagen ([2]; 4 hrs.) [%] | % Inhibition of Blood Platelet Aggregation Induced by Collagen ([2]; 6 hrs.) [%] | % Inhibition of Blood Platelet Aggregation Induced by Collagen ([2]; 24 hrs.) [%] | further results
1 | N=C(N/C=C/c1ccc([N+](=O)[O-])cc1)c1cc(N)cc(N)c1 [3,5-DIAMINO-N-(4-NITROSTYRYL)-BENZAMIDINE TRIHYDROCHLORIDE] | < 30 |  |  |  |  |  |  |  |  | 
2 | N=C(N/C=C/c1ccc(N)cc1)c1cccc(N)c1 [3-AMINO-N-(4-AMINOSTYRYL)BENZAMIDINE TRIHYDROCHLORIDE MONOHYDRATE] | < 30 |  |  |  |  |  |  |  |  | 
3 | CN(C)c1ccc(C(=N)N/C=C/c2ccc([N+](=O)[O-])cc2)cc1 [4-(DIMETHYLAMINO)-N-(4-NITROSTYRYL)-BENZAMIDINE ISETHIONATE] | < 30 |  |  |  |  |  |  |  |  | 
4 | N=C(N/C=C/c1ccc(N)cc1)c1ccc(N)cc1 [4-AMINO-N-(4-AMINOSTYRYL)BENZAMIDINE TRIHYDROCHLORIDE] | < 30 |  |  |  |  |  |  |  |  | 
5 | N=C(N/C=C/c1ccc([N+](=O)[O-])cc1)c1ccc(N)cc1 [4-AMINO-N-(4-NITROSTYRYL)BENZAMIDINE HYDROCHLORIDE] | < 30 |  |  |  |  |  |  |  |  | 
6 | N=C(N/C=C/c1ccccc1N)c1ccccc1 [N-(2-AMINOSTYRYL)BENZAMIDINE DIHYDROCHLORIDE] | < 30 |  |  |  |  |  |  |  |  | 
7 | CC(C)(C)C(=N)N/C=C/c1ccc(Cl)c(Cl)c1 [N-(3,4-DICHLOROSTYRYL)-2,2-DIMETHYLPROPIONAMIDINE] |  | 25 | 67 | 87 | 0 | 80 | 95 | 95 | 0 | % Inhibition of Blood Platelet Aggregation Induced by ADP ([2]; 1 hr.): 60%; % Inhibition of Blood Platelet Aggregation Induced by Collagen ([2]; 1 hr.): 78%
8 | N=C(N/C=C/c1ccc(Cl)c(Cl)c1)c1ccccc1 [N-(3,4-DICHLOROSTYRYL)BENZAMIDINE HYDROCHLORIDE] |  | 54 | 30 | 22 | 0 | 65 | 26 | 3 | 0 | % Inhibition of Blood Platelet Aggregation Induced by ADP ([2]; 0.5 hrs.): 61%; % Inhibition of Blood Platelet Aggregation Induced by Collagen ([2]; 0.5 hrs.): 73%
9 | CCCC(=N)N/C=C/c1ccc(Cl)c(Cl)c1 [N-(3,4-DICHLOROSTYRYL)BUTYRAMIDINE HYDROCHLORIDE] |  | 67 | 37 | 30 | 0 | 92 | 32 | 45 | 0 | % Inhibition of Blood Platelet Aggregation Induced by ADP ([2]; 1 hr.): 18%; % Inhibition of Blood Platelet Aggregation Induced by Collagen ([2]; 1 hr.): 30%
10 | N=C(N/C=C/c1ccc(Cl)c(Cl)c1)C1CC1 [N-(3,4-DICHLOROSTYRYL)CYCLOPROPANECARBOXAMIDINE HYDROCHLORIDE] |  | 55 | 90 | 75 | 5 | 85 | 97 | 87 | 15 | % Inhibition of Blood Platelet Aggregation Induced by ADP ([2]; 1 hr.): 60%; % Inhibition of Blood Platelet Aggregation Induced by Collagen ([2]; 1 hr.): 65%
11 | N=C(N/C=C/c1ccc(Cl)c(Cl)c1)C1CC1 [N-(3,4-dichlorostyryl)cyclopropanecarboxamidine] | < 30 |  |  |  |  |  |  |  |  | 
12 | CC(=N)N/C=C/c1ccc(C2CCCCC2)c(Br)c1 [N-(3-BROMO-4-CYCLOHEXYLSTYRYL)ACETAMIDINE HYDROCHLORIDE] | < 30 |  |  |  |  |  |  |  |  | 
13 | CC(=O)Nc1ccc(/C=C/NC(=N)c2ccccc2)cc1 [N-(4-ACETAMIDOSTYRYL)BENZAMIDINE HYDROCHLORIDE] | < 30 |  |  |  |  |  |  |  |  | 
